The values below are quoted from earlier work in patent publication US20190256487A1, “HYDROXYN[…]” (BioPharmaWorks, LLC, priority 2016, published 2019).

The conditions of data set [1]: mice.
For data set [2] the following is noted: mice. The source holds these as a separate data set.

Turning to `N[C@@]1(c2ccccc2Cl)CCC[C@@H](O)C1=O` [(2R,6R)-HNK, (2R,6R)-hydroxynorketamine], the ketamine-related side effects result in data set [1] is listed as “lacks ketamine-related side effects”. In addition, the antidepressant actions entry in data set [2] is “rapid and sustained antidepressant actions”.
